Measurements taken from paper PMC11962085, “Molecular mechanisms of urate transport by the native human URAT1 and its inhibition by anti-gout drugs” (Cell Discovery, 2025).
Positions count from the first letter of the chain named.

Columns and labels:
hURAT1 F360A = biological target: T1, hURAT1 F360A (Homo sapiens, UniProt Q96S37, F360A); experiment: 14C-urate uptake inhibition assay, hURAT1 F360A mutant in HEK293 cells; type: cell-based; settings: for effect of alanine substitution at F360 on inhibition: F360A vs wild-type URAT1, in words; for IC50: F360A hURAT1, HEK293 cells, 14C-urate uptake, n=3-8, read-out: pIC50 (Mean ± SEM) (converted)
T1 construct: Flag; expressed in transfected cells; host or cells: HEK293
T1 sequence (Q96S37 1-553 F360A): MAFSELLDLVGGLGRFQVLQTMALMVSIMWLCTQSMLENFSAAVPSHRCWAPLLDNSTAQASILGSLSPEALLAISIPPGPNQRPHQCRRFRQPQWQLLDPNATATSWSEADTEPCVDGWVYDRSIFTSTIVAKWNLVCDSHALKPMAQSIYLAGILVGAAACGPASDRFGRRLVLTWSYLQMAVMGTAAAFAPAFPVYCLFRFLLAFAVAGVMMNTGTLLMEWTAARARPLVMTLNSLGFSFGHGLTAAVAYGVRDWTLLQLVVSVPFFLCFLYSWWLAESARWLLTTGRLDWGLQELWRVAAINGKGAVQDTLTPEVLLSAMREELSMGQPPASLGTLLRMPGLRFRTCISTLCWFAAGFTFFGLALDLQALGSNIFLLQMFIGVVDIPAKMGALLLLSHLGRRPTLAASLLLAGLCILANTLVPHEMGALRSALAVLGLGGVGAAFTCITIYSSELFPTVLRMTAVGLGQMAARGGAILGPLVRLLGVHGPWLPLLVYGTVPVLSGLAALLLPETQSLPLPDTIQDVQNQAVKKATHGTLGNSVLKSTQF
Protocol: (§1) The cells were seeded at a density of 30,000 cells per well in Isoplate-96 plates (Perkin Elmer).

hURAT1 R477K = biological target: T2, hURAT1 R477K (Homo sapiens, UniProt Q96S37, R477K); experiment: 14C-urate uptake inhibition assay, hURAT1 R477K mutant in HEK293 cells; type: cell-based; settings: for IC50: R477K hURAT1, HEK293 cells, 14C-urate uptake, n=3-8, read-out: pIC50 (Mean ± SEM) (converted)
T2 construct: Flag; expressed in transfected cells; host or cells: HEK293
T2 sequence (Q96S37 1-553 R477K): T1 sequence (Q96S37 1-553 F360A) with A360F, R477K
Protocol: as §1

hURAT1 F449A = biological target: T3, hURAT1 F449A (Homo sapiens, UniProt Q96S37, F449A); experiment: 14C-urate uptake inhibition assay, hURAT1 F449A mutant in HEK293 cells; type: cell-based
T3 construct: Flag; expressed in transfected cells; host or cells: HEK293
T3 sequence (Q96S37 1-553 F449A): T1 sequence (Q96S37 1-553 F360A) with A360F, F449A
Protocol: as §1

hURAT1 F364Y-F365Y = biological target: T4, hURAT1 F364Y-F365Y (Homo sapiens, UniProt Q96S37, F364Y/F365Y); experiment: 14C-urate uptake inhibition assay, hURAT1 F364Y-F365Y mutant in HEK293 cells; type: cell-based; settings: for IC50: F364Y-F365Y hURAT1, HEK293 cells, 14C-urate uptake, n=3-8, N.A., not active, read-out: pIC50 (Mean ± SEM) (converted)
T4 construct: Flag; expressed in transfected cells; host or cells: HEK293
T4 sequence (Q96S37 1-553 F364Y/F365Y): T1 sequence (Q96S37 1-553 F360A) with A360F, F364Y, F365Y
Protocol: as §1

[1] = set-up: method as in PMID 26378978, PMID 30415602; settings: high-risk patients; cited from earlier work

IC50 (hURAT1 F360A) | IC50 (hURAT1 R477K) | IC50 (hURAT1 F364Y-F365Y) | Structure (SMILES) | effect of alanine substitution at F360 on inhibition (hURAT1 F360A) | other results
– | – | – | CCc1oc2ccccc2c1C(=O)c1cc(Br)c(O)c(Br)c1 [benzbromarone] | significantly diminish the inhibitory effectiveness | effect of mutation of R477 to lysine on potency (hURAT1 R477K; R477K vs wild-type URAT1, in words): slightly reduced the potency; effect of alanine substitution at F449 on inhibition (hURAT1 F449A; F449A vs wild-type URAT1, in words): significantly diminish the inhibitory effectiveness
3.16 µM | 0.0229 µM | 0.123 µM | O=C(c1cc(Cl)c(O)c(Cl)c1)N1CS(=O)(=O)c2ccccc21 [dotinurad] | markedly reduces the effectiveness | –
– | – | – | OC[C@H]1O[C@@H](c2ccc(Cl)c(Cc3ccc(O[C@H]4CCOC4)cc3)c2)[C@H](O)[C@@H](O)[C@@H]1O [empagliflozin] | – | relative risk reduction in cardiovascular death [1]: 38%
– | – | – | O=C(O)CSc1nnc(Br)n1-c1ccc(C2CC2)c2ccccc12 [lesinurad] | – | effect of changing F364 and F365 to tyrosine on inhibition (hURAT1 F364Y-F365Y; F364Y-F365Y vs wild-type URAT1, in words): nearly abolishes the inhibitory effects
0.0562 µM | 0.513 µM | 245 µM | CC(C)(Sc1ccncc1-c1ccc(C#N)c2ccccc12)C(=O)O [verinurad] | – | IC50 (hURAT1 F449A; F449A hURAT1, HEK293 cells, 14C-urate uptake, n=3-8, read-out: pIC50 (Mean ± SEM) (converted)): 0.126 µM
